Data reported in the supplement of paper PMC10307832.

Tests used:
Experiment in all cases: relative viability (nuclei count vs DMSO), 5 days (fraction); higher = more cells survive
OSI-027 = compound: COc1cccc2cc(-c3nc([C@H]4CC[C@H](C(=O)O)CC4)n4ncnc(N)c34)[nH]c12 [OSI-027]
In short: (§1)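 Cells of lung cancer lines were placed in 1536-well plates and kept overnight at 37 °C. Pinning then delivered five library-drug doses (not always all listed), spaced by √10, onto plates anchored with vehicle, and the cells were left 5 days without changing medium. One step fixed, permeabilised and stained them with Hoechst, and MetaXpress counted nuclei in 4× images. Viability, as a median over plates, is treated-well nuclei divided by vehicle-well nuclei, with acceptance only at control CV below 25% and at least one doubling.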

Alpelisib = compound: Cc1nc(NC(=O)N2CCC[C@H]2C(N)=O)sc1-c1ccnc(C(C)(C)C(F)(F)F)c1 [Alpelisib]
In short: as §1

Vemurafenib = compound: CCCS(=O)(=O)Nc1ccc(F)c(C(=O)c2c[nH]c3ncc(-c4ccc(Cl)cc4)cc23)c1F [Vemurafenib]
In short: as §1

Vemurafenib + Phenformin = compound: CCCS(=O)(=O)Nc1ccc(F)c(C(=O)c2c[nH]c3ncc(-c4ccc(Cl)cc4)cc23)c1F [Vemurafenib] + N=C(N)NC(=N)NCCc1ccccc1 [Phenformin] (partner 250 µM)
In short: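 Nuclei were stained with Hoechst during a one-step fixation (final 0.05% Triton X-100, 1% formaldehyde, 1 ug/ml Hoechst) carried out 5 days after dosing, then counted on 4× images. The cells, lung cancer lines in 1536-well plates, had been dosed by pin tool the day after seeding with one drug alone or a fixed anchor-drug dose plus five library-drug doses (not always all listed) in √10 steps. Relative viability is the nuclei count in treated wells divided by that in vehicle wells, and each value is the median of duplicate plates.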

| Cell Line | relative viability (OSI-027; 0.01 µM) | relative viability (OSI-027; 0.03162 µM) | relative viability (OSI-027; 0.1 µM) | relative viability (OSI-027; 0.3162 µM) | relative viability (OSI-027; 1 µM) | relative viability (Alpelisib; 0.04 µM) | relative viability (Alpelisib; 0.1265 µM) | relative viability (Alpelisib; 0.4 µM) | relative viability (Alpelisib; 1.265 µM) | relative viability (Alpelisib; 2 µM, anchor plate) | relative viability (Alpelisib; 4 µM) | relative viability (Vemurafenib; 0.03162 µM) | relative viability (Vemurafenib; 0.1 µM) | relative viability (Vemurafenib; 0.3162 µM) | relative viability (Vemurafenib; 1 µM) | relative viability (OSI-027; 0.5 µM, anchor plate) | relative viability (Vemurafenib + Phenformin; first compound 0.03162 µM) | relative viability (Vemurafenib + Phenformin; first compound 0.1 µM) | relative viability (Vemurafenib + Phenformin; first compound 0.3162 µM) | relative viability (Vemurafenib + Phenformin; first compound 1 µM) |
| --- | --- | --- | --- | --- | --- | --- | --- | --- | --- | --- | --- | --- | --- | --- | --- | --- | --- | --- | --- | --- |
| Calu-6 | 1.12 | 0.954 | 1.03 | 0.907 | 0.731 | 0.981 | 0.976 | 1.1 | 0.941 | 0.98 | 0.922 | 0.932 | 0.956 | 0.849 | 0.974 | – | – | – | – | – |
| ChaGo-K-1 | 0.989 | 0.91 | 0.959 | 0.9 | 0.859 | 0.973 | 0.875 | 1.02 | 0.871 | – | 0.75 | 0.958 | 1.02 | 0.863 | 1.01 | 0.63 | 0.472 | 0.545 | 0.352 | 0.481 |
| EBC-1 | 0.943 | 0.837 | 0.909 | 0.886 | 0.361 | 0.942 | 0.904 | 1.15 | 0.853 | 0.866 | 0.862 | 0.943 | 0.929 | 0.986 | 1.03 | – | – | – | – | – |
| EKVX | 0.984 | 0.914 | 0.93 | 0.889 | 0.582 | 0.927 | 0.921 | 1.12 | 0.821 | 0.893 | 0.614 | 0.935 | – | 1.03 | 0.988 | 0.693 | 0.223 | – | 0.223 | 0.213 |
| EMC-BAC-2 | 0.938 | 1.02 | 0.824 | 0.644 | 0.474 | 0.95 | 0.821 | 0.981 | 0.672 | 0.751 | 0.604 | 0.893 | 0.977 | 0.624 | 0.826 | 0.39 | 0.509 | 0.461 | 0.26 | 0.452 |
| EPLC-272H | 0.972 | 0.934 | 0.78 | 0.514 | 0.439 | 0.898 | 0.864 | 0.984 | 0.778 | 0.92 | 0.61 | 0.889 | 0.854 | 1.01 | 0.903 | 0.289 | 0.355 | 0.226 | 0.263 | 0.362 |
| H3255 | 0.98 | 1.11 | 0.893 | 0.874 | 0.638 | 1.03 | 0.936 | 1.09 | 0.755 | 0.698 | 0.743 | 0.918 | – | 1.01 | 0.917 | 0.629 | 0.3 | – | 0.342 | 0.332 |
| HARA | 1.02 | 1.01 | 0.791 | 0.936 | 0.55 | 0.921 | 1.17 | 0.995 | 0.817 | 0.805 | 0.504 | 0.892 | 0.652 | 0.701 | 0.864 | 0.498 | 0.434 | 0.283 | 0.328 | 0.323 |
| HCC-15 | 0.981 | 0.977 | 0.983 | 0.899 | 0.708 | 1.02 | 0.938 | 1.07 | 0.886 | 0.852 | 0.759 | 0.926 | 1.03 | 0.854 | 0.989 | 0.692 | 0.441 | 0.497 | – | 0.45 |
